# ChEMBL document CHEMBL1201862, “PubChem BioAssay data set” (2004)
#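 Five compound concentrations were applied to cells in 96-well plates for 48 hours; endpoints were derived by simple linear interpolation of the resulting dose-response curve. At the GI50, growth is halved.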 Calls of active or inactive are those of the source. Rule as the data show it: active = GI50 up to about 1.1 µM and inactive = higher.
# Experiments:
# Test in all cases: growth of human tumour cells (NCI), 48 h
# [1] = tested on: M19-MEL
# [2] = tested on: RXF 631
# [3] = tested on: COLO 205
# [4] = tested on: HOP-92
# [5] = tested on: DLD-1
# [6] = tested on: OVCAR-8
# [7] = tested on: ACHN
# [8] = tested on: A498
# [9] = tested on: HCT-116
# [10] = tested on: SN12C
# [11] = tested on: UO-31
# [12] = tested on: SF-539
# [13] = tested on: SF-268
# [14] = tested on: DMS-114
# [15] = tested on: SF-295
# [16] = tested on: SR
# [17] = tested on: HOP-18
# [18] = tested on: SK-OV-3
# [19] = tested on: HCC 2998
# [20] = tested on: A549
# [21] = tested on: SK-MEL-2
# [22] = tested on: SK-MEL-5
# [23] = tested on: OVCAR-3
# [24] = tested on: LXFL 529
# [25] = tested on: M14
# [26] = tested on: TK-10
# [27] = tested on: HL-60
# [28] = tested on: IGROV-1
# [29] = tested on: U-251
# [30] = tested on: KM12
# [31] = tested on: OVCAR-5
# [32] = tested on: CCRF-CEM
# [33] = tested on: CAKI-1
# [34] = tested on: MOLT-4
# [35] = tested on: NCI-H522
# [36] = tested on: NCI-H460
# [37] = tested on: K562
# [38] = tested on: NCI-H23
# [39] = tested on: LOX IMVI
# [40] = tested on: OVCAR-4
# [41] = tested on: SNB-75
# [42] = tested on: SK-MEL-28
# [43] = tested on: SNB-78
# [44] = tested on: DMS-273
# [45] = tested on: Malme-3M
# [46] = tested on: UACC-62
# [47] = tested on: NCI-H226
# [48] = tested on: EKVX
# [49] = tested on: KM-20L2
# [50] = tested on: HT-29
# [51] = tested on: HCT-15
# [52] = tested on: SNB-19
# [53] = tested on: 786-0
# [54] = tested on: UACC-257
# [55] = tested on: SW-620
compound,measurement,setting,value
CCC(=O)C1=C(OC(C)=O)C2Cc3c(n(C)c4ccccc34)C(C1)N2C (stereo not given),GI50,[1],41.4 µM (inactive)
same,GI50,[2],22.9 µM (inactive)
same,GI50,[3],34 µM (inactive)
same,GI50,[4],67 µM (inactive)
same,GI50,[5],23.8 µM (inactive)
same,GI50,[6],18.9 µM (inactive)
same,GI50,[7],27.3 µM (inactive)
same,GI50,[8],42.9 µM (inactive)
same,GI50,[9],29.9 µM (inactive)
same,GI50,[10],25.3 µM (inactive)
same,GI50,[11],36.1 µM (inactive)
same,GI50,[12],16.7 µM (inactive)
same,GI50,[13],19 µM (inactive)
same,GI50,[14],26.7 µM (inactive)
same,GI50,[15],> 100 µM (inactive)
same,GI50,[16],36.1 µM (inactive)
same,GI50,[17],25.4 µM (inactive)
same,GI50,[18],> 100 µM (inactive)
same,GI50,[19],38 µM (inactive)
same,GI50,[20],68.5 µM (inactive)
same,GI50,[21],63.7 µM (inactive)
same,GI50,[22],28.2 µM (inactive)
same,GI50,[23],22.9 µM (inactive)
same,GI50,[24],29 µM (inactive)
same,GI50,[25],37.8 µM (inactive)
same,GI50,[26],66.1 µM (inactive)
same,GI50,[27],21.6 µM (inactive)
same,GI50,[28],29.9 µM (inactive)
same,GI50,[29],> 100 µM (inactive)
same,GI50,[30],45.9 µM (inactive)
same,GI50,[31],> 100 µM (inactive)
same,GI50,[32],27 µM (inactive)
same,GI50,[33],33.7 µM (inactive)
same,GI50,[34],34.7 µM (inactive)
same,GI50,[35],15.3 µM (inactive)
same,GI50,[36],53 µM (inactive)
same,GI50,[37],33.3 µM (inactive)
same,GI50,[38],68.9 µM (inactive)
same,GI50,[39],40.5 µM (inactive)
same,GI50,[40],28.4 µM (inactive)
same,GI50,[41],25.5 µM (inactive)
same,GI50,[42],71.8 µM (inactive)
same,GI50,[43],22.3 µM (inactive)
same,GI50,[44],20 µM (inactive)
same,GI50,[45],48.6 µM (inactive)
same,GI50,[46],26.2 µM (inactive)
same,GI50,[47],> 100 µM (inactive)
same,GI50,[48],64.3 µM (inactive)
same,GI50,[49],35.9 µM (inactive)
same,GI50,[50],30.8 µM (inactive)
same,GI50,[51],18.7 µM
same,GI50,[52],> 100 µM (inactive)
same,GI50,[53],22.2 µM (inactive)
same,GI50,[54],24.5 µM (inactive)
same,GI50,[55],26.1 µM (inactive)
